Data reported in ChEMBL document CHEMBL5131425, “Microbial transformation and inhibitory effect assessment of uvaol derivates against LPS and HMGB1 induced NO production in RAW264.7 macrophages” (Bioorg Med Chem Lett, 2022).

Columns and labels:
[1] = system: RAW264.7; test: Anti-inflammatory activity in mouse RAW264.7 cells assessed as inhibition of LPS-induced NO production; type: functional, cell-based
[2] = system: RAW264.7; test: Anti-inflammatory activity in mouse RAW264.7 cells assessed as inhibition of HMGB1-induced NO production; type: functional, cell-based
[3] = Cytotoxicity against mouse RAW264.7 cells assessed as cell viability at 50 uM; type: toxicity, cell-based; settings: read-out: Activity

IC50 [1] [µM]	IC50 [2] [µM]	Structure (SMILES)	viability at 50 µM [3] [%]
29.9	60.4	C[C@@H]1[C@H]2C3=CC[C@@H]4[C@@]5(C)CC[C@H](O)[C@@](C)(CO)[C@@H]5CC[C@@]4(C)[C@]3(C)CC[C@@]2(CO)[C@@H](O)C[C@H]1C(=O)O	118
0.55	91.6	C[C@H]1[C@H](C(=O)O)[C@@H](O)C[C@]2(CO)CC[C@]3(C)C(=CC[C@@H]4[C@@]5(C)CC[C@H](O)[C@](C)(CO)[C@@H]5CC[C@]43C)[C@H]12	112
> 100	> 100	C[C@H]1[C@H](C)CC[C@]2(CO)CC[C@]3(C)C(=CC[C@@H]4[C@@]5(C)CC[C@H](O)C(C)(C)[C@@H]5CC[C@]43C)[C@H]12 [UVAOL]	103
2.22	> 100	C[C@H]1[C@H](C)[C@@H](O)C[C@]2(CO)CC[C@]3(C)C(=CC[C@@H]4[C@@]5(C)CC[C@H](O)C(C)(C)[C@@H]5C[C@H](O)[C@]43C)[C@H]12	94.2

The remaining lines, values behind:

Structure (SMILES)	IC50 [1] [µM]	IC50 [2] [µM]	viability at 50 µM [3] [%]
C[C@H]1[C@H](C(=O)O)[C@@H](O)C[C@]2(CO)CC[C@]3(C)C(=CC[C@@H]4[C@@]5(C)CC[C@H](O)[C@@](C)(CO)[C@@H]5CC[C@]43C)[C@H]12	> 100	> 100	124
C[C@H]1[C@H](C)[C@@H](O)C[C@@]23CC[C@@]4(C)[C@@]5(C)[C@H](C=C[C@]4(OC2)[C@H]13)[C@@]1(C)CC[C@H](O)C(C)(C)[C@@H]1C[C@@H]5O	4.8	47.2	94.2
CC1(C)[C@@H](OC(=O)CCC(=O)O)CC[C@]2(C)[C@H]3C(=O)C=C4[C@@H]5C[C@@](C)(C(=O)O)CC[C@]5(C)CC[C@@]4(C)[C@]3(C)CC[C@@H]12 [CARBENOXOLONE]	6.64	7.62	88.5
C[C@@H]1[C@H]2C3=CC[C@@H]4[C@@]5(C)CC[C@H](O)[C@](C)(CO)[C@@H]5CC[C@@]4(C)[C@]3(C)CC[C@@]2(CO)[C@@H](O)C[C@H]1C(=O)O	> 100	100	117
